Experimental findings from patent US10428083B2, “Heterocyclylmethyl-thienouracile as antagonists of the adenosine-A2B-receptor” (BAYER PHARMA AKTIENGESELLSCHAFT, priority 2015, dated 2019) are described below.

The target of the assay is human adenosine A2b receptor (Homo sapiens (Human), UniProt P29275). Nature of the assay: Cellular in vitro reporter gene test for A2b receptor activity (CHO-K1, CRE-luciferase, NECA stimulation). The assay is classed as cell-based. To be noted: recombinant CHO-K1 cell line, CRE-luciferase reporter, antagonism of EC50 concentration of NECA; in some cases means of several determinations, rounded to two significant figures; read-out: A2b receptor IC50. Summed up:
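CHO-K1 cells with CRE-driven luciferase; antagonists co-incubated with NECA at its EC50, determined in a pre-experiment on each test day. Luciferase read by luminescence 3 h after NECA addition.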

Sequence of human adenosine A2b receptor (P29275 whole entry): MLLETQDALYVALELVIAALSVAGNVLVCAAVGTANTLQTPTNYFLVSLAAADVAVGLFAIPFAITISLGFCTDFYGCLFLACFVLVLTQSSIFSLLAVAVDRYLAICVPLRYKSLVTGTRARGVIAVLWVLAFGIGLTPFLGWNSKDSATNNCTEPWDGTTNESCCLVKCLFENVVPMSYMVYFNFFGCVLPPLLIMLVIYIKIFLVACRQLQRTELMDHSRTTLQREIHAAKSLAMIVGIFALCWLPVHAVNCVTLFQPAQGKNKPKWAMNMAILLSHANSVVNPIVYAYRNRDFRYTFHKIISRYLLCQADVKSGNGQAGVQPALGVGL

What is called IC50 is the concentration at which inhibition is half-maximal. Regarding `CCn1c(=O)c2c(C)c(CN3CCNC3=O)sc2n(CCS(C)(=O)=O)c1=O` [Example 310, 3-Ethyl-5-methyl-1-[2-(methylsulphonyl)ethyl]-6-[(2-oxoimidazolidin-1-yl)methyl]thieno[2,3-d]pyrimidine-2,4(1H,3H)-dione], the IC50 was 370 nM. On to `CCn1c(=O)c2c(C)c(CN3CCNC3=O)sc2n(CCCOC)c1=O` [Example 311, 3-Ethyl-1-(3-methoxypropyl)-5-methyl-6-[(2-oxoimidazolidin-1-yl)methyl]thieno[2,3-d]pyrimidine-2,4(1H,3H)-dione], for which the IC50 turned out to be 31 nM.

For the molecule `Cc1c(CN2CCNC2=O)sc2c1c(=O)n(C(C)C)c(=O)n2C` [Example 312, 3-Isopropyl-1,5-dimethyl-6-[(2-oxoimidazolidin-1-yl)methyl]thieno[2,3-d]pyrimidine-2,4(1H,3H)-dione], the IC50 was found to be 22 nM. The figure for `Cc1c(CN2CCNC2=O)sc2c1c(=O)n(C(C)C)c(=O)n2CF` [Example 313, 1-(Fluoromethyl)-3-isopropyl-5-methyl-6-[(2-oxoimidazolidin-1-yl)methyl]thieno[2,3-d]pyrimidine-2,4(1H,3H)-dione] is 41 nM; for `Cc1c(CN2CCNC2=O)sc2c1c(=O)n(C(C)C)c(=O)n2CCCF` [Example 314, 1-(3-Fluoropropyl)-3-isopropyl-5-methyl-6-[(2-oxoimidazolidin-1-yl)methyl]thieno[2,3-d]pyrimidine-2,4(1H,3H)-dione] it is 4.7 nM. Then `C#CCn1c(=O)c2c(C)c(CN3CCNC3=O)sc2n(CCOC)c1=O` [Example 315, 1-(2-Methoxyethyl)-5-methyl-6-[(2-oxoimidazolidin-1-yl)methyl]-3-(prop-2-yn-1-yl)thieno[2,3-d]pyrimidine-2,4(1H,3H)-dione], with 4.3 nM. With `C=CCCn1c(=O)c2c(C)c(CN3CCNC3=O)sc2n(CCOC)c1=O` [Example 316, 3-(But-3-en-1-yl)-1-(2-methoxyethyl)-5-methyl-6-[(2-oxoimidazolidin-1-yl)methyl]thieno[2,3-d]pyrimidine-2,4(1H,3H)-dione], the IC50 was 1.3 nM.

Turning to `CC#CCn1c(=O)c2c(C)c(CN3CCNC3=O)sc2n(CCOC)c1=O` [Example 317, 3-(But-2-yn-1-yl)-1-(2-methoxyethyl)-5-methyl-6-[(2-oxoimidazolidin-1-yl)methyl]thieno[2,3-d]pyrimidine-2,4(1H,3H)-dione], the IC50 was determined as 25 nM.

With `C#CCCn1c(=O)c2c(C)c(CN3CCNC3=O)sc2n(CCOC)c1=O` [Example 318, 3-(But-3-yn-1-yl)-1-(2-methoxyethyl)-5-methyl-6-[(2-oxoimidazolidin-1-yl)methyl]thieno[2,3-d]pyrimidine-2,4(1H,3H)-dione], the IC50 amounted to 1.4 nM. In the case of `C=C(C)CCn1c(=O)c2c(C)c(CN3CCNC3=O)sc2n(CCOC)c1=O` [Example 319, 1-(2-Methoxyethyl)-5-methyl-3-(3-methylbut-3-en-1-yl)-6-[(2-oxoimidazolidin-1-yl)methyl]thieno[2,3-d]pyrimidine-2,4(1H,3H)-dione], the half-maximal inhibitory concentration (IC50) is 2.4 nM.

As for `COCCn1c(=O)n(CCC=C(C)C)c(=O)c2c(C)c(CN3CCNC3=O)sc21` [Example 320, 1-(2-Methoxyethyl)-5-methyl-3-(4-methylpent-3-en-1-yl)-6-[(2-oxoimidazolidin-1-yl)methyl]thieno[2,3-d]pyrimidine-2,4(1H,3H)-dione], the IC50 came to 0.44 nM. Then `COCCn1c(=O)n(CCC(F)=C(F)F)c(=O)c2c(C)c(CN3CCNC3=O)sc21` [Example 321, 1-(2-Methoxyethyl)-5-methyl-6-[(2-oxoimidazolidin-1-yl)methyl]-3-(3,4,4-trifluorobut-3-en-1-yl)thieno[2,3-d]pyrimidine-2,4(1H,3H)-dione], with 1.6 nM. Consider `COCCn1c(=O)n(CCC=C(F)F)c(=O)c2c(C)c(CN3CCNC3=O)sc21` [Example 322, 3-(4,4-Difluorobut-3-en-1-yl)-1-(2-methoxyethyl)-5-methyl-6-[(2-oxoimidazolidin-1-yl)methyl]thieno[2,3-d]pyrimidine-2,4(1H,3H)-dione], for which the half-maximal inhibitory concentration (IC50) amounted to 1.3 nM. Then `CCOCCn1c(=O)c2c(C)c(CN3CCNC3=O)sc2n(CCC(F)(F)F)c1=O` [Example 326, 3-(2-Ethoxyethyl)-5-methyl-6-[(2-oxoimidazolidin-1-yl)methyl]-1-(3,3,3-trifluoropropyl)thieno[2,3-d]pyrimidine-2,4(1H,3H)-dione], with 10 nM; and `CCOCCn1c(=O)c2c(C)c(CN3CCNC3=O)sc2n(CCOC)c1=O` [Example 327, 3-(2-Ethoxyethyl)-1-(2-methoxyethyl)-5-methyl-6-[(2-oxoimidazolidin-1-yl)methyl]thieno[2,3-d]pyrimidine-2,4(1H,3H)-dione], with 40 nM; and `COCCCn1c(=O)c2c(C)c(CN3CCNC3=O)sc2n(CCOC)c1=O` [Example 328, 1-(2-Methoxyethyl)-3-(3-methoxypropyl)-5-methyl-6-[(2-oxoimidazolidin-1-yl)methyl]thieno[2,3-d]pyrimidine-2,4(1H,3H)-dione], with 19 nM. The figure for `COCCn1c(=O)n(CC2COC2)c(=O)c2c(C)c(CN3CCNC3=O)sc21` [Example 335, 1-(2-Methoxyethyl)-5-methyl-3-(oxetan-3-ylmethyl)-6-[(2-oxoimidazolidin-1-yl)methyl]thieno[2,3-d]pyrimidine-2,4(1H,3H)-dione] is 270 nM; for `Cc1c(CN2CCN(C)C2=O)sc2c1c(=O)n(CC(F)(F)F)c(=O)n2CCC(F)(F)F` [Example 336, 5-Methyl-6-[(3-methyl-2-oxoimidazolidin-1-yl)methyl]-3-(2,2,2-trifluoroethyl)-1-(3,3,3-trifluoropropyl)thieno[2,3-d]pyrimidine-2,4(1H,3H)-dione] it is 8.7 nM; for `COCCn1c(=O)n(CCC(F)(F)F)c(=O)c2c(C)c(CN3CCN(C)C3=O)sc21` [Example 337, 1-(2-Methoxyethyl)-5-methyl-6-[(3-methyl-2-oxoimidazolidin-1-yl)methyl]-3-(3,3,3-trifluoropropyl)thieno[2,3-d]pyrimidine-2,4(1H,3H)-dione] it is 280 nM. The figure for `COC(C)(C)Cn1c(=O)c2c(C)c(CN3CCN(C)C3=O)sc2n(CCC(F)(F)F)c1=O` [Example 338, 3-(2-Methoxy-2-methylpropyl)-5-methyl-6-[(3-methyl-2-oxoimidazolidin-1-yl)methyl]-1-(3,3,3-trifluoropropyl)thieno[2,3-d]pyrimidine-2,4(1H,3H)-dione] is 120 nM; for `Cc1c(Cn2cc[nH]c2=O)sc2c1c(=O)n(CC(F)(F)F)c(=O)n2CCC(F)(F)F` [Example 339, 5-Methyl-6-[(2-oxo-2,3-dihydro-1H-imidazol-1-yl)methyl]-3-(2,2,2-trifluoroethyl)-1-(3,3,3-trifluoropropyl)thieno[2,3-d]pyrimidine-2,4(1H,3H)-dione] it is 5.6 nM. For `COCCn1c(=O)n(CC(F)(F)F)c(=O)c2c(C)c(Cn3cc[nH]c3=O)sc21` [Example 340, 1-(2-Methoxyethyl)-5-methyl-6-[(2-oxo-2,3-dihydro-1H-imidazol-1-yl)methyl]-3-(2,2,2-trifluoroethyl)thieno[2,3-d]pyrimidine-2,4(1H,3H)-dione], the IC50 stood at 18 nM. In the case of `COCCn1c(=O)c2c(C)c(Cn3cc[nH]c3=O)sc2n(CCC(F)(F)F)c1=O` [Example 344, 3-(2-Methoxyethyl)-5-methyl-6-[(2-oxo-2,3-dihydro-1H-imidazol-1-yl)methyl]-1-(3,3,3-trifluoropropyl)thieno[2,3-d]pyrimidine-2,4(1H,3H)-dione], the IC50 was found to be 8.5 nM.

Take `COCCn1c(=O)c2c(C)c(Cn3cc[nH]c3=O)sc2n(CCOC)c1=O` [Example 345, 1,3-Bis(2-methoxyethyl)-5-methyl-6-[(2-oxo-2,3-dihydro-1H-imidazol-1-yl)methyl]thieno[2,3-d]pyrimidine-2,4(1H,3H)-dione]: the IC50 turned out to be 17 nM. For the molecule `C=CCn1cnn(Cc2sc3c(c2C)c(=O)n(CC)c(=O)n3CF)c1=O` [Example 349, 6-[(4-Allyl-5-oxo-4,5-dihydro-1H-1,2,4-triazol-1-yl)methyl]-3-ethyl-1-(fluoromethyl)-5-methylthieno[2,3-d]pyrimidine-2,4(1H,3H)-dione], the IC50 turned out to be 630 nM. As for `C=CCn1cnn(Cc2sc3c(c2C)c(=O)n(CC)c(=O)n3CCCF)c1=O` [Example 350, 6-[(4-Allyl-5-oxo-4,5-dihydro-1H-1,2,4-triazol-1-yl)methyl]-3-ethyl-1-(3-fluoropropyl)-5-methylthieno[2,3-d]pyrimidine-2,4(1H,3H)-dione], the IC50 was determined as 210 nM. As to `CCn1c(=O)c2c(C)c(Cn3nc[nH]c3=O)sc2n(CF)c1=O` [Example 352, 3-Ethyl-1-(fluoromethyl)-5-methyl-6-[(5-oxo-4,5-dihydro-1H-1,2,4-triazol-1-yl)methyl]thieno[2,3-d]pyrimidine-2,4(1H,3H)-dione], the IC50 was found to be 48 nM. The figure for `CCn1c(=O)c2c(C)c(Cn3nc[nH]c3=O)sc2n(CCCF)c1=O` [Example 353, 3-Ethyl-1-(3-fluoropropyl)-5-methyl-6-[(5-oxo-4,5-dihydro-1H-1,2,4-triazol-1-yl)methyl]thieno[2,3-d]pyrimidine-2,4(1H,3H)-dione] is 31 nM; for `CCn1c(=O)c2c(C)c(Cn3nc[nH]c3=O)sc2n(CCCOC)c1=O` [Example 354, 3-Ethyl-1-(3-methoxypropyl)-5-methyl-6-[(5-oxo-4,5-dihydro-1H-1,2,4-triazol-1-yl)methyl]thieno[2,3-d]pyrimidine-2,4(1H,3H)-dione] it is 120 nM. For the molecule `CCCn1cnn(Cc2sc3c(c2C)c(=O)n(CC)c(=O)n3CCC(F)(F)F)c1=O` [Example 355, 3-Ethyl-5-methyl-6-[(5-oxo-4-propyl-4,5-dihydro-1H-H-1,2,4-triazol-1-yl)methyl]-1-(3,3,3-trifluoropropyl)thieno[2,3-d]pyrimidine-2,4(1H,3H)-dione], the IC50 stood at 99 nM.
